According to ChEMBL document CHEMBL1201862, “PubChem BioAssay data set” (2004):
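96-well plates; 48 h exposure; 5 concentrations. Endpoints by linear interpolation between flanking doses. Not reached: highest tested concentration assigned. GI50: concentration for 50% inhibition of growth.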 Activity calls are given as the source filed them. Cut-off read from the data, not from the text of the source: active = GI50 up to about 1.1 µM and inactive = higher.

Key:
Assay in all cases: DTP human tumour cell line panel, 48 h
[1] = tested on: ACHN
[2] = tested on: HCC 2998
[3] = tested on: HCT-15
[4] = tested on: HT-29
[5] = tested on: IGROV-1
[6] = tested on: MCF7
[7] = tested on: MDA-MB-435
[8] = tested on: MDA-N
[9] = tested on: Malme-3M
[10] = tested on: NCI/ADR-RES
[11] = tested on: OVCAR-4
[12] = tested on: RXF 393
[13] = tested on: SK-MEL-28
[14] = tested on: SK-OV-3
[15] = tested on: SN12C
[16] = tested on: SNB-19
[17] = tested on: SW-620
[18] = tested on: OVCAR-3
[19] = tested on: SF-539
[20] = tested on: SNB-75

| Structure (SMILES) | GI50 [1] | GI50 [2] | GI50 [3] [µM] | GI50 [4] | GI50 [5] | GI50 [6] | GI50 [7] | GI50 [8] | GI50 [9] | GI50 [10] | GI50 [11] | GI50 [12] | GI50 [13] | GI50 [14] | GI50 [15] | GI50 [16] | GI50 [17] | GI50 [18] | GI50 [19] | GI50 [20] |
| --- | --- | --- | --- | --- | --- | --- | --- | --- | --- | --- | --- | --- | --- | --- | --- | --- | --- | --- | --- | --- |
| COC(=O)c1c(C#N)c(N)nc2c1CCC2 | > 100 µM (inactive) | > 100 µM (inactive) | > 100 | > 100 µM (inactive) | > 100 µM (inactive) | > 100 µM (inactive) | > 100 µM (inactive) | > 100 µM (inactive) | > 100 µM (inactive) | > 100 µM (inactive) | 93.3 µM (inactive) | > 100 µM (inactive) | > 100 µM (inactive) | > 100 µM (inactive) | > 100 µM (inactive) | > 100 µM (inactive) | > 100 µM (inactive) |  |  |  |
| Oc1ccccc1-n1nc2ccc3nonc3c2n1 | > 100 µM (inactive) | 40.9 µM (inactive) | 51.3 | > 100 µM (inactive) | > 100 µM (inactive) | > 100 µM (inactive) | > 100 µM (inactive) | > 100 µM (inactive) | > 100 µM (inactive) | > 100 µM (inactive) | > 100 µM (inactive) |  | > 100 µM (inactive) | > 100 µM (inactive) | > 100 µM (inactive) | > 100 µM (inactive) | > 100 µM (inactive) | > 100 µM (inactive) | > 100 µM (inactive) | > 100 µM (inactive) |
| O=C(O)c1ccc(CNCc2ccccc2)cc1 | > 100 µM (inactive) |  | > 100 | > 100 µM (inactive) | > 100 µM (inactive) | > 100 µM (inactive) | > 100 µM (inactive) | > 100 µM (inactive) | > 100 µM (inactive) | > 100 µM (inactive) | > 100 µM (inactive) | > 100 µM (inactive) | > 100 µM (inactive) | > 100 µM (inactive) | > 100 µM (inactive) | > 100 µM (inactive) | > 100 µM (inactive) | > 100 µM (inactive) | > 100 µM (inactive) |  |
| C1COCCOP2(N3CC3)=NP(N3CC3)(=NP(N3CC3)(N3CC3)=N2)OCCOCCO1 (stereo not drawn) | > 100 µM (inactive) |  | > 100 | > 100 µM (inactive) | > 100 µM (inactive) | > 100 µM (inactive) | > 100 µM (inactive) | > 100 µM (inactive) | > 100 µM (inactive) | > 100 µM (inactive) | > 100 µM (inactive) | > 100 µM (inactive) |  | > 100 µM (inactive) | > 100 µM (inactive) | > 100 µM (inactive) | > 100 µM (inactive) | > 100 µM (inactive) | > 100 µM (inactive) | > 100 µM (inactive) |
| CCOC(=O)[C@@]12NN=N[C@@H]1[C@H]1CO[C@H](c3ccccc3)N1C2=O | 13.4 µM (inactive) | 12.9 µM (inactive) | 6.62 | 13.5 µM (inactive) | 5.24 µM (inactive) | 6.34 µM (inactive) | 11.1 µM (inactive) | 11.1 µM (inactive) | 13.3 µM (inactive) | 22.1 µM (inactive) | 16.5 µM (inactive) | 3.58 µM (inactive) | 5.25 µM (inactive) | 18.2 µM (inactive) | 11.1 µM (inactive) | 10.2 µM (inactive) | 7.67 µM (inactive) | 8.53 µM (inactive) | 11.2 µM (inactive) |  |
| CC(=O)NNc1nc(C)c(C(=O)/C=C/C=C/c2ccccc2)s1 | > 100 µM (inactive) | > 100 µM (inactive) | > 100 | > 100 µM (inactive) | 33.7 µM (inactive) | > 100 µM (inactive) | > 100 µM (inactive) | > 100 µM (inactive) | > 100 µM (inactive) | 70.6 µM (inactive) | > 100 µM (inactive) |  | > 100 µM (inactive) | > 100 µM (inactive) | > 100 µM (inactive) | > 100 µM (inactive) | > 100 µM (inactive) | 52.2 µM (inactive) | > 100 µM (inactive) | > 100 µM (inactive) |
| COc1ccccc1OCC(=N/NC(=O)c1ccncc1)/N=C/c1ccncc1 | > 100 µM (inactive) | > 100 µM (inactive) | > 100 | > 100 µM (inactive) | > 100 µM (inactive) | > 100 µM (inactive) | > 100 µM (inactive) | > 100 µM (inactive) | > 100 µM (inactive) | > 100 µM (inactive) | > 100 µM (inactive) | > 100 µM (inactive) | > 100 µM (inactive) | > 100 µM (inactive) | > 100 µM (inactive) | > 100 µM (inactive) | > 100 µM (inactive) | > 100 µM (inactive) | > 100 µM (inactive) |  |
| O[C@@H]1C=C[C@]23CCN(Cc4cc5c(cc42)OCO5)[C@@H]3C1 | 35.2 µM (inactive) |  | > 100 | 51.5 µM (inactive) | 44.3 µM (inactive) | 52.1 µM (inactive) | 57 µM (inactive) | 69.3 µM (inactive) | > 100 µM (inactive) | > 100 µM (inactive) | 34 µM (inactive) | 20.8 µM (inactive) | > 100 µM (inactive) | > 100 µM (inactive) | 32.7 µM (inactive) | 43.1 µM (inactive) | 49 µM (inactive) | > 100 µM (inactive) | > 100 µM (inactive) | 20.5 µM (inactive) |
